Reference: ChEMBL document CHEMBL3045559, “Natural-product-based chromenes as a novel class of potential termiticides” (2011)

Tests used:
Assay type in all cases: functional
Coptotermes formosanus [1] = assay: Termiticidal activity against Coptotermes formosanus (third-instar worker and soldier) assessed as mortality at 1% wt/wt at 26.6 degC, 100% RH measured after 8 days (Rvb= 1.3 +/- 2.5%)
Coptotermes formosanus [2] = assay: Termiticidal activity against Coptotermes formosanus (third-instar worker and soldier) assessed as mortality at 1% wt/wt at 26.6 degC, 100% RH measured after 18 days (Rvb= 1.3 +/- 2.5%)
Coptotermes formosanus [3] = assay: Termiticidal activity against Coptotermes formosanus (third-instar worker and soldier) assessed as mortality at 1% wt/wt at 26.6 degC, 100% RH measured after 15 days (Rvb= 1.3 +/- 2.5 to 5 +/- 4.1%)
Coptotermes formosanus [4] = assay: Termiticidal activity against Coptotermes formosanus (third-instar worker and soldier) assessed as mortality at 1% wt/wt at 26.6 degC, 100% RH measured after 11 days (Rvb= 1.3 +/- 2.5%)
Coptotermes formosanus [5] = assay: Termiticidal activity against Coptotermes formosanus (third-instar worker and soldier) assessed as mortality at 1% wt/wt at 26.6 degC, 100% RH measured after 1 day (Rvb= 0%)
Coptotermes formosanus [6] = assay: Termiticidal activity against Coptotermes formosanus (third-instar worker and soldier) assessed as mortality at 1% wt/wt at 26.6 degC, 100% RH measured after 21 days (Rvb= 1.3 +/- 2.5%)
Coptotermes formosanus [7] = assay: Termiticidal activity against Coptotermes formosanus (third-instar worker and soldier) assessed as mortality at 1% wt/wt at 26.6 degC, 100% RH measured after 4 days (Rvb= 0%)
Coptotermes formosanus [8] = assay: Termiticidal activity against Coptotermes formosanus (third-instar worker and soldier) assessed as mortality at 0.5% wt/wt at 26.6 degC, 100% RH measured after 5 days
Coptotermes formosanus [9] = assay: Termiticidal activity against Coptotermes formosanus (third-instar worker and soldier) assessed as mortality at 1% wt/wt at 26.6 degC, 100% RH measured after 17 days (Rvb= 5 +/- 4.1%)
Coptotermes formosanus [10] = assay: Termiticidal activity against Coptotermes formosanus (third-instar worker and soldier) assessed as mortality at 1% wt/wt at 26.6 degC, 100% RH measured after 3 days (Rvb= 0%)
Coptotermes formosanus [11] = assay: Termiticidal activity against Coptotermes formosanus (third-instar worker and soldier) assessed as mortality at 1% wt/wt at 26.6 degC, 100% RH measured after 21 days (Rvb= 1.3 +/- 2.5 to 5 +/- 4.1%)
Coptotermes formosanus [12] = assay: Termiticidal activity against Coptotermes formosanus (third-instar worker and soldier) assessed as mortality at 1% wt/wt at 26.6 degC, 100% RH measured after 7 days (Rvb= 3.8 +/- 4.8%)
Coptotermes formosanus [13] = assay: Termiticidal activity against Coptotermes formosanus (third-instar worker and soldier) assessed as mortality at 1% wt/wt at 26.6 degC, 100% RH measured after 9 days (Rvb= 3.8 +/- 4.8%)

For `CC1(C)C=Cc2ccc(CO)cc2O1`, the mortality (Coptotermes formosanus [1]) was 100%, the mortality (Coptotermes formosanus [2]) was 100% and the mortality (Coptotermes formosanus [3]) was 100%. The mortality (Coptotermes formosanus [4]) was 100%, the mortality (Coptotermes formosanus [5]) was 26.3% and the mortality (Coptotermes formosanus [6]) was 100%. For the same compound, the mortality (Coptotermes formosanus [7]) was 100%.
With `CC1(C)C=Cc2c(CO)cccc2O1` the mortality (Coptotermes formosanus [1]) was 100%, the mortality (Coptotermes formosanus [2]) was 100% and the mortality (Coptotermes formosanus [3]) was 100%. It also gave a mortality (Coptotermes formosanus [4]) of 100%, a mortality (Coptotermes formosanus [5]) of 41.3% and a mortality (Coptotermes formosanus [6]) of 100%. It also gave a mortality (Coptotermes formosanus [8]) of 100% and a mortality (Coptotermes formosanus [7]) of 100%.
`COC(=O)c1ccc2c(c1)OC(C)(C)C=C2` showed a mortality (Coptotermes formosanus [1]) of 100%, a mortality (Coptotermes formosanus [2]) of 100% and a mortality (Coptotermes formosanus [3]) of 100%. It also gave a mortality (Coptotermes formosanus [4]) of 100%, a mortality (Coptotermes formosanus [5]) of 32.5% and a mortality (Coptotermes formosanus [6]) of 100%. It also gave a mortality (Coptotermes formosanus [7]) of 100%.
For `COC(=O)c1cccc2c1C=CC(C)(C)O2`, the mortality (Coptotermes formosanus [1]) was 97.5%, the mortality (Coptotermes formosanus [2]) was 100% and the mortality (Coptotermes formosanus [3]) was 100%. The mortality (Coptotermes formosanus [4]) was 100%, the mortality (Coptotermes formosanus [5]) was 0% and the mortality (Coptotermes formosanus [6]) was 100%. For the same compound, the mortality (Coptotermes formosanus [7]) was 87.5%.
`CNCCc1ccc2c(c1)C=CC(C)(C)O2.Cl` gave a mortality (Coptotermes formosanus [1]) of 0%, a mortality (Coptotermes formosanus [2]) of 2.5% and a mortality (Coptotermes formosanus [3]) of 2.5%. For the same compound, the mortality (Coptotermes formosanus [4]) was 1.3%, the mortality (Coptotermes formosanus [5]) was 0% and the mortality (Coptotermes formosanus [6]) was 3.8%. For the same compound, the mortality (Coptotermes formosanus [7]) was 0%.
`CC(C)NCc1ccc2c(c1)C=CC(C)(C)O2.Cl` was tested, and the mortality (Coptotermes formosanus [1]) was 55%, the mortality (Coptotermes formosanus [2]) was 88.8% and the mortality (Coptotermes formosanus [3]) was 80%. For the same compound, the mortality (Coptotermes formosanus [4]) was 72.5%, the mortality (Coptotermes formosanus [5]) was 8.8% and the mortality (Coptotermes formosanus [6]) was 88.8%. It also gave a mortality (Coptotermes formosanus [7]) of 20%.
Compound `CC(C)NCCc1ccc2c(c1)C=CC(C)(C)O2.Cl` has a mortality (Coptotermes formosanus [1]) of 3.8%, a mortality (Coptotermes formosanus [2]) of 8.8% and a mortality (Coptotermes formosanus [3]) of 7.5%. It also gave a mortality (Coptotermes formosanus [4]) of 5%, a mortality (Coptotermes formosanus [5]) of 3.75% and a mortality (Coptotermes formosanus [6]) of 15%. For the same compound, the mortality (Coptotermes formosanus [7]) was 3.8%.
Compound `CC1(C)C=Cc2cc(CCO)ccc2O1` has a mortality (Coptotermes formosanus [1]) of 33.8%, a mortality (Coptotermes formosanus [2]) of 71.3% and a mortality (Coptotermes formosanus [3]) of 70%. It also gave a mortality (Coptotermes formosanus [4]) of 56.3%, a mortality (Coptotermes formosanus [5]) of 0% and a mortality (Coptotermes formosanus [6]) of 73.8%. It also gave a mortality (Coptotermes formosanus [7]) of 10%.
For `COC(=O)Cc1ccc2c(c1)C=CC(C)(C)O2`, the mortality (Coptotermes formosanus [1]) was 92.5%, the mortality (Coptotermes formosanus [2]) was 100% and the mortality (Coptotermes formosanus [3]) was 100%. It also gave a mortality (Coptotermes formosanus [4]) of 100%, a mortality (Coptotermes formosanus [5]) of 12.5% and a mortality (Coptotermes formosanus [6]) of 100%. The mortality (Coptotermes formosanus [7]) was 82.5%.
In the case of `CC1(C)C=Cc2cc(C=O)ccc2O1`, the mortality (Coptotermes formosanus [1]) was 81.3%, the mortality (Coptotermes formosanus [2]) was 98.8% and the mortality (Coptotermes formosanus [3]) was 98.8%. It also gave a mortality (Coptotermes formosanus [4]) of 93.8%, a mortality (Coptotermes formosanus [5]) of 51.3% and a mortality (Coptotermes formosanus [6]) of 98.8%. It also gave a mortality (Coptotermes formosanus [7]) of 62.5%.
`COC(=O)c1ccc(OC)c2c1OC(C)(C)C=C2` showed a mortality (Coptotermes formosanus [9]) of 100%, a mortality (Coptotermes formosanus [10]) of 2.5% and a mortality (Coptotermes formosanus [3]) of 96.3%. The mortality (Coptotermes formosanus [11]) was 100%, the mortality (Coptotermes formosanus [12]) was 30% and the mortality (Coptotermes formosanus [5]) was 0%. It also gave a mortality (Coptotermes formosanus [13]) of 61.3% and a mortality (Coptotermes formosanus [8]) of 100%.
Work on `CC(=O)c1ccc2c(c1O)C=CC(C)(C)O2` yielded a mortality (Coptotermes formosanus [9]) of 100%, a mortality (Coptotermes formosanus [10]) of 1.3% and a mortality (Coptotermes formosanus [3]) of 100%. For the same compound, the mortality (Coptotermes formosanus [11]) was 100%, the mortality (Coptotermes formosanus [12]) was 66.3% and the mortality (Coptotermes formosanus [5]) was 0%. For the same compound, the mortality (Coptotermes formosanus [13]) was 98.8% and the mortality (Coptotermes formosanus [8]) was 100%.
Work on `CC(C)CC(=O)N(C)CCC1=CC2C=CC(C)(C)OC2C=C1` (configuration not stated) yielded a mortality (Coptotermes formosanus [1]) of 32.5%, a mortality (Coptotermes formosanus [2]) of 32.5% and a mortality (Coptotermes formosanus [3]) of 32.5%. The mortality (Coptotermes formosanus [4]) was 32.5%, the mortality (Coptotermes formosanus [5]) was 6.3% and the mortality (Coptotermes formosanus [6]) was 32.5%. For the same compound, the mortality (Coptotermes formosanus [7]) was 32.5%.
In the case of `CC1(C)C=Cc2cc(C(=O)O)ccc2O1`, the mortality (Coptotermes formosanus [1]) was 0%, the mortality (Coptotermes formosanus [2]) was 1.3% and the mortality (Coptotermes formosanus [3]) was 1.3%. It also gave a mortality (Coptotermes formosanus [4]) of 0%, a mortality (Coptotermes formosanus [5]) of 0% and a mortality (Coptotermes formosanus [6]) of 2.5%. It also gave a mortality (Coptotermes formosanus [7]) of 0%.
Compound `COC(=O)c1ccc2c(c1)C=CC(C)(C)O2` has a mortality (Coptotermes formosanus [1]) of 100%, a mortality (Coptotermes formosanus [2]) of 100% and a mortality (Coptotermes formosanus [3]) of 100%. The mortality (Coptotermes formosanus [4]) was 100%, the mortality (Coptotermes formosanus [5]) was 3.75% and the mortality (Coptotermes formosanus [6]) was 100%. The mortality (Coptotermes formosanus [7]) was 92.5%.
In the case of `CC1(C)C=Cc2cc3c(cc2O1)OCO3` [6,6-DIMETHYL-6H-[1,3]DIOXOLO[4,5-G]CHROMENE], the mortality (Coptotermes formosanus [9]) was 82.5%, the mortality (Coptotermes formosanus [10]) was 2.5% and the mortality (Coptotermes formosanus [3]) was 75%. For the same compound, the mortality (Coptotermes formosanus [11]) was 85%, the mortality (Coptotermes formosanus [12]) was 12.5% and the mortality (Coptotermes formosanus [5]) was 0%. For the same compound, the mortality (Coptotermes formosanus [13]) was 23.8%.
`CC1(C)C=Cc2cc(CO)ccc2O1` [EULATACHROMENE] gave a mortality (Coptotermes formosanus [1]) of 92.5%, a mortality (Coptotermes formosanus [2]) of 100% and a mortality (Coptotermes formosanus [3]) of 100%. It also gave a mortality (Coptotermes formosanus [4]) of 100%, a mortality (Coptotermes formosanus [5]) of 1.3% and a mortality (Coptotermes formosanus [6]) of 100%. It also gave a mortality (Coptotermes formosanus [7]) of 40%.
